Laboratory results: patent US11926645B2, “Compounds and methods for treatment of viral infections” (priority 2020, dated 2024)
Where two headings read alike, the source gives them in different places.

Key:
[1] = male beagle dogs; oral Reference Compound A 5 mg/kg
[2] = in vitro; format: in vitro ADME; conditions: s9, pH 7.4
Procedure: (§1) Duplicate aliquots of test compound or positive control substrate (GS-7340) were added to S9 stock diluted with 100 mM potassium phosphate buffer, pH 7.4, to obtain a protein concentration of 2.4 mg/mL. The S9 metabolic reactions were initiated by the addition of the substrates to the S9 reaction mixture to a final concentration of 2 μM. At 2, 12, 25, 45, 65 and 90 min, 25 μL aliquots of the reaction mixture were transferred to plates containing 225 μl of IS/Q solution. After quenching, the plates were centrifuged at 3000×g for 30 minutes, and 150 μl, aliquots of each supernatant were diluted with 150 μl, water. Aliquots (10 μL) of the diluted supernatant were analyzed on a Thermo Q-Exactive mass spectrometer as described below.
(§2) Quantification of test compounds and controls was performed by analyte/internal standard peak area ratio (PAR) values measured on a Thermo Q-Exactive mass spectrometer coupled to a Dionex UltiMate 3000 HPLC with a Leap Technologies HTC PAL autosampler. The column used was a Thermo Hypersil GOLD (1.9 μm particle size, 2.1×50 mm). Mobile phase A consisted of 0.1% (v/v) formic acid in water. Mobile phase B consisted of 0.1% (v/v) formic acid in acetonitrile. Elution of analytes was achieved by a series of linear gradients of acetonitrile in water containing 0.1% (v/v) formic acid. The mass spectrometer was calibrated on a weekly basis and mass tolerance of 5 ppm was used.

[3] = test system: SARS-CoV-2 WA1/2020 A; test: microbe, parasite or virus in culture; format: cell-based; conditions: Severe acute respiratory syndrome coronavirus 2, Vero C1008
[4] = test system: SARS-CoV-2 SA/2020 B.1.351; test: microbe, parasite or virus in culture; format: cell-based; conditions: Severe acute respiratory syndrome coronavirus 2, Vero C1008
[5] = test system: SARS-CoV-2-Nluc viruses; test: microbe, parasite or virus in culture; format: cell-based; conditions: Severe acute respiratory syndrome coronavirus 2; host cells A549-ACE2; read-out: EC50, WA1/2020-nano luciferase
[6] = test system: SARS-CoV-2 BZ/2021 P.1; test: microbe, parasite or virus in culture; format: cell-based; conditions: Severe acute respiratory syndrome coronavirus 2, Vero C1008
[7] = in vivo; conditions: female, po, 20 mg/kg
[8] = male Balb/c mice; oral Reference Compound A 24 mg/kg
[9] = female ferrets; oral Reference Compound A 20 mg/kg
[10] = male cynomolgus monkeys; oral Reference Compound A 5 mg/kg
[11] = in vitro; conditions: human
[12] = in vitro; conditions: African green monkey
[13] = in vitro; conditions: human, PrestoBlue
[14] = in vitro; conditions: human; remark: listed apart in the source
[15] = in vitro; format: in vitro ADME, Human; conditions: human, s9, pH 7.4
Procedure: as §1, with “mM” for “mM potassium”, “buffered saline,” for “buffer,”, “1.0” for “2.4”, “0, 10, 20, 30, 60” for “2, 12, 25, 45, 65”, “120” for “90”, “μL” for “μl,”
as §2

[16] = Plasma stability; conditions: human
[17] = in vitro; format: cell-based; conditions: human; host cells A549-ACE2; read-out: CC50, A549-ACE2
Procedure: The cytotoxicity of compounds was determined in A549-hACE2 cells in the following manner. Compounds (200 nL) were spotted onto 384-well Grenier plates prior to seeding 5000 A549-hACE2 cells/well in a volume of 40 μL culture medium. The plates were incubated at 37° C. for 48 hours with 5% CO2. On day 2, 40 μL of CellTiter-Glo (Promega) was added and mixed 5 times.

[18] = test system: RSV-Fluc (Respiratory Syncytial virus strain A2 containing the firefly luciferase reporter); test: microbe, parasite or virus in culture; format: cell-based; conditions: human respiratory syncytial virus, 72 h, NHBE cells, three days
[19] = in vitro; conditions: hamster
[20] = in vivo; conditions: male, beagle, dog, po, 5 mg/kg
[21] = test system: SARS-CoV-2 CA/2020; test: microbe, parasite or virus in culture; format: cell-based; conditions: Severe acute respiratory syndrome coronavirus 2, Vero C1008
[22] = in vivo; conditions: male, Sprague-Dawley, rat, po; for AUC(0-inf): Reference Compound A AUCinf.; for Cmax: Reference Compound A Cmax
[23] = in vivo; conditions: male, cynomolgus monkey, po, 5 mg/kg
[24] = in vivo; conditions: male, Balb/c, mouse, po, 24 mg/kg
[25] = ferrets, single dose, Reference Compound A i.v. 20 mg/kg

N#C[C@@]1(c2ccc3c(N)ncnn23)O[C@H](CO)[C@@H](O)[C@H]1O [Reference Compound A, (2R,3R,4S,5R)-2-(4-aminopyrrolo[2,1-f][1,2,4]triazin-7-yl)-3,4-dihydroxy-5-(hydroxymethyl)tetrahydrofuran-2-carbonitrile]
Reference Compound A F % (based on compound A mg-eq dose) [1]: 89% | half-life at 2 μM [2]: 592 min | EC50 [3]: 680 nM | EC50 [4]: 340 nM | EC50 [5]: 1600 nM | EC50 [6]: 550 nM | AUC(0-inf) [7]: 70.9 µM·h | Cmax [7]: 11.7 µM | Reference Compound A F % (based on compound A mg-eq dose) [8]: 33% | Reference Compound A F % (based on Reference Compound A mg-eq dose) [9]: 87% | Reference Compound A F % (based on compound A mg-eq dose) [10]: 3.4% | CC50 [11]: > 100 µM | CC50 [12]: > 100 µM | CC50 ([13]; CC50, F2 HAE, primary HAE donor F2, 72 hours): > 100 µM | CC50 ([13]; CC50, F3 HAE, primary HAE donor F3, 72 hours): > 100 µM | CC50 ([13]; CC50, M2 HAE, primary HAE donor M2, 72 hours): > 100 µM | CC50 ([13]; CC50, M6 HAE, primary HAE donor M6, 72 hours): > 100 µM | CC50 [14]: > 100 µM | half-life at 2 μM [15]: > 700 min | half-life at 2 μM [16]: > 1500 min | CC50 [17]: > 50 µM | EC50 [18]: 1970 nM | CC50 [19]: > 100 µM | AUC(0-inf) [20]: 83.9 µM·h | Cmax [20]: 27.3 µM | EC50 [21]: 210 nM | AUC(0-inf) ([22]; 5 mg/kg): 3.07 µM·h | Cmax ([22]; 5 mg/kg): 875 nM | AUC(0-inf) ([22]; 10 mg/kg): 2.36 µM·h | Cmax ([22]; 10 mg/kg): 578 nM | AUC(0-inf) [23]: 1.86 µM·h | Cmax [23]: 536 nM | AUC(0-inf) [24]: 45.1 µM·h | Cmax [24]: 13.7 µM | Reference Compound A AUClast [25]: 81.1 µM·h | Reference Compound A IV - CL [25]: 0.86 L/h/kg | Reference Compound A t1/2 [25]: 3.4 h | Cmax ([25]; read-out: Reference Compound A Cmax): 54.2 µM
